Measured values taken from patent publication US9341839B2, “Electrowetting display device and dye composition for electrowetting display” (FUJIFILM CORPORATION, priority 2012, dated 2016).

Experiment: Solubility of dye in normal decane
Type: physicochemical
Conditions: n-decane, 25° C., after heating to 50° C. and leaving 12 hours; 40% by mass added

## tetraphenylporphine [Comparative compound H-1]
  Solubility in Decane: less than 0.1% by mass
